Source: ChEMBL document CHEMBL2413014, “Imidazolium-based warheads strongly influence activity of water-soluble peptidic transglutaminase inhibitors” (Eur J Med Chem, 2013)

Legend:
[1] = target: T1, Coagulation factor XIII A chain (Homo sapiens, UniProt P00488); experiment: Inhibition of recombinant human F13a-mediated biotin X-cadaverine incorporation into N,N'-dimethylcasein after 1 hr
T1 sequence (P00488 whole entry): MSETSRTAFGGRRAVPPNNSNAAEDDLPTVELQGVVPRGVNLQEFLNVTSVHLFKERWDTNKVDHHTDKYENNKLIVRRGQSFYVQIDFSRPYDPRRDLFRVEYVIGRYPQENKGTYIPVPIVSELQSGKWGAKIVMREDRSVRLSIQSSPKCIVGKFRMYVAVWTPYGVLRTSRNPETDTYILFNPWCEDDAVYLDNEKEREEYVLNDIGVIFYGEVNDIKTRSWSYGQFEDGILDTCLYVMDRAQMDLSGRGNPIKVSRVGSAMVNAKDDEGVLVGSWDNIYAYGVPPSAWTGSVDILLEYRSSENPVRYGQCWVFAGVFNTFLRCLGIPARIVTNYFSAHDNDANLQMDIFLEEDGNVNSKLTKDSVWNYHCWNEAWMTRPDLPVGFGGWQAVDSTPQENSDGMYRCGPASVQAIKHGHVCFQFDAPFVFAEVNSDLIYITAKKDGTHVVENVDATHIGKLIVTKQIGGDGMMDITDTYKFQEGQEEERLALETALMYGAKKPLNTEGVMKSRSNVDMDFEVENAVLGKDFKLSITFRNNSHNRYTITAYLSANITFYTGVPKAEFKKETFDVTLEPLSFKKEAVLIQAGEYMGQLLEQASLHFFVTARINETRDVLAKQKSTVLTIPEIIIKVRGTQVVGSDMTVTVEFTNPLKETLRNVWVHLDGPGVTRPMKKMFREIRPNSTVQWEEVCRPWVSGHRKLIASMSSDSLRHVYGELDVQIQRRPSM

[2] = target: T2, Protein-glutamine gamma-glutamyltransferase (Homo sapiens, UniProt P21980); experiment: Inhibition of recombinant human tissue transglutaminase-mediated biotin X-cadaverine incorporation into N,N'-dimethylcasein after 1 hr
T2 sequence (P21980 whole entry): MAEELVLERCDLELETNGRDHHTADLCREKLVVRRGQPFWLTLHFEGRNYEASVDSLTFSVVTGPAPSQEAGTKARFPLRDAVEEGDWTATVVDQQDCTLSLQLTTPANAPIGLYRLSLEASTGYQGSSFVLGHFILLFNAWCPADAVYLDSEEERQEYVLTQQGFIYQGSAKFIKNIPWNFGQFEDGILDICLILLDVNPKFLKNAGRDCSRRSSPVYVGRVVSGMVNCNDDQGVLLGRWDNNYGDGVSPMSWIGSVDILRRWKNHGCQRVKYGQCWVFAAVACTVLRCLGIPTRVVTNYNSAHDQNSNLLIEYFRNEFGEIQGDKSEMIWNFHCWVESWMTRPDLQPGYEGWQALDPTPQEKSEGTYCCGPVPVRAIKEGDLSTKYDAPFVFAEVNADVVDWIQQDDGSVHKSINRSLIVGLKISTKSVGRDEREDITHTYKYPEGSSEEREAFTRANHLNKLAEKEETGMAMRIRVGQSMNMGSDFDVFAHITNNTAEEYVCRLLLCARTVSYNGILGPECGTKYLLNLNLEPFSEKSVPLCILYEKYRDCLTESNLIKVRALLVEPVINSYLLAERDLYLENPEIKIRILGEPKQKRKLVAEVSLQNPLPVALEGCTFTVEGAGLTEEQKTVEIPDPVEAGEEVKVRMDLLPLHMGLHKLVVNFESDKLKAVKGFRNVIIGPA

NIH3T3 = experiment: Cytotoxicity against Swiss mouse 3T3 cells up to 250 uM after 72 hrs; format: cell-based; conditions: nih3t3, 72 h

| Compound | IC50 [1] | IC50 [2] | Activity (NIH3T3) |
| --- | --- | --- | --- |
| Cc1c(C)[n+](C)c(SCC(=O)CC[C@H](NC(=O)CNC(=O)OCc2ccccc2)C(=O)O)n1Cc1ccccc1 | > 200 µM | > 200 µM | – |
| Cc1c(C)[n+](C)c(SCC(=O)CC[C@H](NC(=O)CNC(=O)OCc2ccccc2)C(=O)O)n1-c1ccccc1 | > 200 µM | > 200 µM | – |
| C[S+](C)CC(=O)CC[C@H](NC(=O)CNC(=O)OCc1ccccc1)C(=O)O | > 200 µM | 8 µM | – |
| CC[S+](CC)CC(=O)CC[C@H](NC(=O)CNC(=O)OCc1ccccc1)C(=O)O | > 200 µM | 20 µM | – |
| Cc1c(C)[n+](C)c(SCC(=O)CC[C@H](NC(=O)[C@H](Cc2ccccc2)NC(=O)OCc2ccccc2)C(=O)O)n1Cc1ccccc1 | > 200 µM | > 200 µM | – |
| CCC[n+]1c(C)c(C)n(C)c1SCC(=O)CC[C@H](NC(=O)[C@H](Cc1ccccc1)NC(=O)OCc1ccccc1)C(=O)O | > 200 µM | > 200 µM | – |
| C[S+](C)CC(=O)CC[C@H](NC(=O)[C@H](Cc1ccccc1)NC(=O)OCc1ccccc1)C(=O)O | 105 µM | 10 µM | – |
| CC[S+](CC)CC(=O)CC[C@H](NC(=O)[C@H](Cc1ccccc1)NC(=O)OCc1ccccc1)C(=O)O | > 200 µM | 20 µM | – |
| CCn1c(C)c(C)[n+](CC)c1SCC(=O)CC[C@H](NC(=O)CNC(=O)OCc1ccccc1)C(=O)O | > 200 µM | > 200 µM | – |
| Cc1c(C)[n+](C)c(SCC(=O)CC[C@H](NC(=O)[C@H](Cc2ccccc2)NC(=O)OCc2ccccc2)C(=O)O)n1-c1ccccc1 | > 200 µM | > 200 µM | – |

These reach a lower IC50 [1]. Values come first.

| IC50 [1] | IC50 [2] | Compound | Activity (NIH3T3) |
| --- | --- | --- | --- |
| 5 µM | 3 µM | Cc1c(C)[n+](C)c(SCC(=O)CC[C@H](NC(=O)[C@H](Cc2ccccc2)NC(=O)OCc2ccccc2)C(=O)O)n1C.[Br-] | Non-toxic |
| 2 µM | 1 µM | Cc1c(C)[n+](C)c(SCC(=O)CC[C@H](NC(=O)CNC(=O)OCc2ccccc2)C(=O)O)n1C | – |
| 50 µM | > 200 µM | CCn1c(C)c(C)[n+](CC)c1SCC(=O)CC[C@H](NC(=O)[C@H](Cc1ccccc1)NC(=O)OCc1ccccc1)C(=O)O | – |
| 30 µM | > 200 µM | CCC[n+]1c(C)c(C)n(C)c1SCC(=O)CC[C@H](NC(=O)CNC(=O)OCc1ccccc1)C(=O)O | – |
| 20 µM | 10 µM | CCCc1c(CCC)[n+](C)c(SCC(=O)CC[C@H](NC(=O)CNC(=O)OCc2ccccc2)C(=O)O)n1C | – |
| 10 µM | 5 µM | CCCc1c(CCC)[n+](C)c(SCC(=O)CC[C@H](NC(=O)[C@H](Cc2ccccc2)NC(=O)OCc2ccccc2)C(=O)O)n1C | – |
